Test results taken from patent US20100196321A1, “COMPOUNDS” (GLAXOSMITHKLINE LLC, priority 2009, published 2010).

What was measured:
[1] = system: sub-genomic HCV NS3-NS5B replicon of genotype 1b (ET subline) in Huh-7 cells; assay: Replicon Luciferase Cell Based Assay, genotype 1b; set-up: species or system HCV genotype 1b; conditions: Hepatitis C virus, Huh-7, 48 h, read-out: Genotype 1b (IC50 μM)
Protocol: (§1) A 10 mM stock solution in DMSO of each test compound was further diluted in DMSO in the first row of a 384-well, V-bottom microplate, to give 100 times the top concentration of the required dilution series. Dilutions of compound were prepared in 1:3 serial dilutions from the first row onwards robotically. A robot was also used to transfer 0.5 μL volumes from each dilution well into wells of white 384-well assay plates (Nunc #164610). Control wells received 0.5 μL of DMSO alone. Plates were made in duplicate for measuring HCV replication and cytotoxicity in the replicon cell lines.
(§2) Suspensions were prepared from cultures of Huh-7 cells stably transfected with sub-genomic HCV NS3—NS5B replicons of either genotype 1b (the ET subline described by Pietschmann, T., Lohmann, V., Kaul, A., Krieger, N., Rinck, G., Rutter, G., Strand, D. & Bartenschlager, R., Journal of Virology, 2002, 76, 4008-4021) or genotype 1a linked to a firefly luciferase reporter gene. Monolayers nearing confluency were stripped from growth flasks with versene-trypsin solution and the cells re-suspended in assay medium comprising DMEM (Invitrogen #11965-092) supplemented with 5% v/v foetal calf serum, 1% v/v non-essential amino acids solution, 100 units/ml penicillin, 100 μg/ml streptomycin and 2 mM GlutaMAX-1. 50 μL of suspension containing 5,000 cells of either genotype 1b or genotype 1a luciferase replicon were added to all wells, except medium controls, of the assay plate with a Multidrop Combi (Thermo Scientific Corporation) and the plate incubated for 48 hours at 37° C. in a 5% CO2 atmosphere. A solution of Steady-Glo cytolytic buffer/luciferase substrate (Promega #E2550) was prepared according to the manufacturer's instructions, and 20 μL were added to each well with a Multidrop Combi. To measure cytotoxicity, a solution of CellTiter-Glo Luminescent Cell Viability Assay reagent (Promega #G7573) was prepared according to the manufacturer's instructions, and 20 ul were added to each well with a Multidrop Combi. The plates were then read for luminescence on an Envision Multilabel Reader (Perkin Elmer)
(§3) Potency: The luminescence values from all compound-free wells containing cells were averaged to obtain a positive control value. The mean luminescence value from the compound-free wells that had received no cells was used to provide the negative (background) control value. After the subtraction of the mean background from all values, the readings from wells at each compound concentration were expressed as a percentage of the positive control signal. The quantifiable and specific reduction of luciferase signal in the presence of a drug is a direct measure of replicon inhibition. The BioAssay application and XC50 module were used to plot the curve of percentage inhibition against compound concentration and derive the 50% inhibitory concentration (IC50) for the compound.

[2] = system: sub-genomic HCV NS3-NS5B replicon of genotype 1a in Huh-7 cells; assay: Replicon Luciferase Cell Based Assay, genotype 1a; set-up: species or system HCV genotype 1a; conditions: Hepatitis C virus, Huh-7, 48 hours
Protocol: as §1, §2, §3

Compound | IC50 [1] [µM] | IC50 [2] [µM]
COc1ccc2c(O[C@@H]3C[C@H]4C(=O)N[C@]5(C(=O)NS(=O)(=O)C6CC6)C[C@H]5/C=C\CCCCC[C@H](NC(=O)Nc5ccccc5)C(=O)N4C3)cc(-c3nc(C(C)C)cs3)nc2c1C [Example 1, (2R,6S,13aS,14aR,16aS)-N-(cyclopropylsulfonyl)-2-{[8-methyl-2-[4-(1-methylethyl)-1,3-thiazol-2-yl]-7-(methyloxy)-4-quinolinyl]oxy}-5,16-dioxo-6-{[(phenylamino)carbonyl]amino}-1,2,3,6,7,8,9,10,11,13a,14,15,16,16a-tetradecahydrocyclopropa[e]pyrrolo[1,2-a][1,4]diazacyclopentadecine-14a(5H)-carboxamide] | < 0.01 | < 0.01
COc1ccc2c(O[C@@H]3C[C@H]4C(=O)N[C@]5(C(=O)NS(=O)(=O)C6CC6)C[C@H]5/C=C\CCCCC[C@H](NC(=O)N5CCCC5)C(=O)N4C3)cc(-c3nc(C(C)C)cs3)nc2c1C [Example 15, (2R,6S,13aS,14aR,16aS)-N-(cyclopropylsulfonyl)-2-{[8-methyl-2-[4-(1-methylethyl)-1,3-thiazol-2-yl]-7-(methyloxy)-4-quinolinyl]oxy}-5,16-dioxo-6-[(1-pyrrolidinylcarbonyl)amino]-1,2,3,6,7,8,9,10,11,13a,14,15,16,16a-tetradecahydrocyclopropa[e]pyrrolo[1,2-a][1,4]diazacyclopentadecine-14a(5H)-carboxamide] | < 0.01 | < 0.01
CCN(C(=O)N[C@H]1CCCCC/C=C\[C@@H]2C[C@@]2(C(=O)NS(=O)(=O)C2CC2)NC(=O)[C@@H]2C[C@@H](Oc3cc(-c4nc(C5CC5)cs4)nc4c(C)c(OC)ccc34)CN2C1=O)C(C)C [Example 5, (2R,6S,13aS,14aR,16aS)-N-(cyclopropylsulfonyl)-2-{[2-(4-cyclopropyl-1,3-thiazol-2-yl)-8-methyl-7-(methyloxy)-4-quinolinyl]oxy}-6-({[ethyl(1-methylethyl)amino]carbonyl}amino)-5,16-dioxo-1,2,3,6,7,8,9,10,11,13a,14,15,16,16a-tetradecahydrocyclopropa[e]pyrrolo[1,2-a][1,4]diazacyclopentadecine-14a(5H)-carboxamide] | < 0.01 | < 0.01
COc1ccc2c(O[C@@H]3C[C@H]4C(=O)N[C@]5(C(=O)NS(=O)(=O)C6CC6)C[C@H]5/C=C\CCCCC[C@H](NC(=O)N5CCC(O)CC5)C(=O)N4C3)cc(-c3nc(C(C)C)cs3)nc2c1C [Example 22, (2R,6S,13aS,14aR,16aS)-N-(cyclopropylsulfonyl)-6-{[(4-hydroxy-1-piperidinyl)carbonyl]amino}-2-{[8-methyl-2-[4-(1-methylethyl)-1,3-thiazol-2-yl]-7-(methyloxy)-4-quinolinyl]oxy}-5,16-dioxo-1,2,3,6,7,8,9,10,11,13a,14,15,16 ,16a-tetradecahydrocyclopropa[e]pyrrolo[1,2-a][1,4]diazacyclopentadecine-14a(5H)-carboxamide] | < 0.01 | < 0.01
CCN(CC)C(=O)N[C@H]1CCCCC/C=C\[C@@H]2C[C@@]2(C(=O)NS(=O)(=O)C2CC2)NC(=O)[C@@H]2C[C@@H](Oc3cc(-c4nc(C5CC5)cs4)nc4c(C)c(OC)ccc34)CN2C1=O [Example 26, (2R,6S,13aS,14aR,16aS,Z)-N-(cyclopropylsulfonyl)-2-(2-(4-cyclopropylthiazol-2-yl)-7-methoxy-8-methylquinolin-4-yloxy)-6-(3,3-diethylureido)-5,16-dioxo-1,2,3,5,6,7,8,9,10,11,13a,14,14a,15,16,16a-hexadecahydrocyclopropa[e]pyrrolo[1,2-a][1,4]diazacyclopentadecine-14a-carboxamide] | < 0.01 | < 0.01
COc1ccc2c(O[C@@H]3C[C@H]4C(=O)N[C@]5(C(=O)NS(=O)(=O)C6CC6)C[C@H]5/C=C\CCCCC[C@H](NC(=O)N5CCS(=O)(=O)CC5)C(=O)N4C3)cc(-c3nc(C(C)C)cs3)nc2c1C [Example 12, (2R,6S,13aS,14aR,16aS)-N-(cyclopropylsulfonyl)-6-{[(1,1-dioxido-4-thiomorpholinyl)carbonyl]amino}-2-{[8-methyl-2-[4-(1-methylethyl)-1,3-thiazol-2-yl]-7-(methyloxy)-4-quinolinyl]oxy}-5,16-dioxo-1,2,3,6,7,8,9,10,11,13a,14,15,16,16a-tetradecahydrocyclopropa[e]pyrrolo[1,2-a][1,4]diazacyclopentadecine-14a(5H)-carboxamide] | < 0.01 | < 0.01
CCN(C)C(=O)N[C@H]1CCCCC/C=C\[C@@H]2C[C@@]2(C(=O)NS(=O)(=O)C2CC2)NC(=O)[C@@H]2C[C@@H](Oc3cc(-c4nc(C(C)C)cs4)nc4c(C)c(OC)ccc34)CN2C1=O [Example 17] | < 0.01 | < 0.01
CCN(CC)C(=O)N[C@H]1CCCCC/C=C\[C@@H]2C[C@@]2(C(=O)NS(=O)(=O)C2CC2)NC(=O)[C@@H]2C[C@@H](Oc3cc(-c4nc(C5CC5)cs4)nc4c(Cl)c(OC)ccc34)CN2C1=O [Example 4, (2R,6S,13aS,14aR,16aS,Z)-2-(8-chloro-2-(4-cyclopropylthiazol-2-yl)-7-methoxyquinolin-4-yloxy)-N-(cyclopropylsulfonyl)-6-(3,3-diethylureido)-5,16-dioxo-1,2,3,5,6,7,8,9,10,11,13a,14,14a,15,16,16a-hexadecahydrocyclopropa[e]pyrrolo[1,2-a][1,4]diazacyclopentadecine-14a-carboxamide] | < 0.01 | < 0.01
COc1ccc2c(O[C@@H]3C[C@H]4C(=O)N[C@]5(C(=O)NS(=O)(=O)C6CC6)C[C@H]5/C=C\CCCCC[C@H](NC(=O)N5CC6CCCC6C5)C(=O)N4C3)cc(-c3nc(C(C)C)cs3)nc2c1C (stereo partly drawn) [Example 24, (2R,6S,13aS,14aR,16aS)-N-(cyclopropylsulfonyl)-6-[(hexahydrocyclopenta[c]pyrrol-2(1H)-ylcarbonyl)amino]-2-{[8-methyl-2-[4-(1-methylethyl)-1,3-thiazol-2-yl]-7-(methyloxy)-4-quinolinyl]oxy}-5,16-dioxo-1,2,3,6,7,8,9,10,11,13a,14,15,16,16a-tetradecahydrocyclopropa[e]pyrrolo[1,2-a][1,4]diazacyclopentadecine-14a(5H)-carboxamide] | < 0.01 | < 0.01
COc1ccc2c(O[C@@H]3C[C@H]4C(=O)N[C@]5(C(=O)NS(=O)(=O)C6CC6)C[C@H]5/C=C\CCCCC[C@H](NC(=O)N5CCC(CO)CC5)C(=O)N4C3)cc(-c3nc(C(C)C)cs3)nc2c1C [Example 25, (2R,6S,13aS,14aR,16aS)-N-(cyclopropylsulfonyl)-6-({[4-(hydroxymethyl)-1-piperidinyl]carbonyl}amino)-2-{[8-methyl-2-[4-(1-methylethyl)-1,3-thiazol-2-yl]-7-(methyloxy)-4-quinolinyl]oxy}-5,16-dioxo-1,2,3,6,7,8,9,10,11,13a,14,15,16,16a-tetradecahydrocyclopropa[e]pyrrolo[1,2-a][1,4]diazacyclopentadecine-14a(5H)-carboxamide] | < 0.01 | < 0.01
